According to patent publication US11098029B2, “5-alkyl pyrrolidine orexin receptor agonists” (Merck Sharp & Dohme Corp., priority 2019, dated 2021):

Target: human OX2R (Homo sapiens (Human), UniProt O43614)
Experiment: IPOne (IP-One, Cisbio) orexin receptor agonist assay in CHO cells expressing human OX2R
Conditions: for Emax: CHO; for Emax / Emax (%): hOX2R_IP, percentage of mean max effect of a reference compound at 1 uM (100% activity vs Orexin A)
Description: Both the OX1R and/or OX2R G-coupled protein receptors (GPCRs) couple through the Gaq signaling pathway, which ultimately promotes calcium mobilization via inositol triphosphate (IP3) production.
In a typical experiment, the OX1 and OX2 receptor agonist activity is determined in accordance with the following general experimental method. Chinese hamster ovary (CHO) cells expressing human OX1R and/or the human OX2R were grown in Iscove's modified DMEM containing glutaMAX®, 1% G418, 100 U/mL penicillin, 100 μg/mL streptomycin and 10% heat-inactivated qualified fetal bovine serum (FBS). […] During this incubation, IP-one detection reagents were prepared (38:1:1 lysis buffer:D2:AB-cryptate reagents).
For each compound, data were fit to a four parameter logistic fit (ActivityBase software) and the EC50 was reported as the inflection point of the resulting curve.

Sequence of human OX2R (O43614 whole entry): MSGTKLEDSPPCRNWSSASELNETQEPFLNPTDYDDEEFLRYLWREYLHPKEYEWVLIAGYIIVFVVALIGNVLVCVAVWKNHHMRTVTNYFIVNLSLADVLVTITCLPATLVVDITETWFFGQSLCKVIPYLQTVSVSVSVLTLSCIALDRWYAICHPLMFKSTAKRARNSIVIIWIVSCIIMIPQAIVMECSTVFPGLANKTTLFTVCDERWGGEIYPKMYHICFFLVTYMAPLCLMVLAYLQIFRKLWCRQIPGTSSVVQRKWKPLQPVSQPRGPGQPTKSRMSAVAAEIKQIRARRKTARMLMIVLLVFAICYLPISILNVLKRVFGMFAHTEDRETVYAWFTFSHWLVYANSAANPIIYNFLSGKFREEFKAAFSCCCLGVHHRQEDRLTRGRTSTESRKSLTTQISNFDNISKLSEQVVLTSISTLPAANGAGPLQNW

COC(=O)N1[C@H](C)C[C@H](NS(C)(=O)=O)[C@@H]1CO[C@H]1CC[C@@H](c2c(F)ccc(F)c2F)CC1 [Example 28, methyl (2R,3S,5R)-5-methyl-3-(methylsulfonamido)-2-((((1r,4R)-4-(2,3,6-trifluorophenyl)-cyclohexyl)oxy)methyl)pyrro-lidine-1-carboxylate]
Emax: 102%

COC(=O)N1[C@H](C)C[C@H](NS(=O)(=O)CF)[C@@H]1CO[C@H]1CC[C@@H](c2ccccc2)CC1 [Example 29, methyl (2R,3S,5R)-3-((fluoromethyl)sulfonamido)-5-methyl-2-((((1r,4R)-4-phenylcyclohexyl)oxy)meth-yl)pyrrolidine-1-carboxylate]
Emax: 102%

COC(=O)N1[C@H](C)C[C@H](NS(=O)(=O)N(C)C)[C@@H]1CO[C@@H]1CC[C@H](c2ccccc2)CC1F (stereo partly drawn) [Example 30, methyl (2R,3S,5R)-3-((N,N-dimethylsulfamoyl)amino)-2-((((1R,4S)-2-fluoro-4-phenylcyclohexyl)oxy)methyl)-5-methylpyrrolidine-1-carboxylate]
Emax: 100%

COC(=O)N1[C@H](C)C[C@H](NS(=O)(=O)N(C)C)[C@@H]1CO[C@@H]1CC[C@H](c2cccc(F)c2)CC1F (stereo partly drawn) [Example 31, methyl (2R,3S,5R)-3-((N,N-dimethylsulfamoyl)amino)-2-((((1R,4S)-2-fluoro-4-(3-fluorophenyl)cyclohexyl)oxy)methyl)-5-methylpyrrolidine-1-carboxylate]
Emax: 100%

COC(=O)N1[C@H](C)C[C@H](NS(=O)(=O)N(C)C)[C@@H]1CO[C@H]1CC[C@@H](c2cc(F)cc(F)c2)CC1 [Example 32, methyl (2R,3S,5R)-2-((((1s,4S)-4-(3,5-difluorophenyl)cyclohexyl)oxy)methyl)-3-((N,N-dimethylsulfamoyl)amino)-5-methylpyrrolidine-1-carboxylate]
Emax: 101%

COC(=O)N1[C@H](C)C[C@H](NS(C)(=O)=O)[C@@H]1COC1CCC(c2ccccc2)CC1OC (stereo partly drawn) [Example 33, methyl (2R,3S,5R)-2-(((2-methoxy-4-phenylcyclohexyl)oxy)methyl)-5-methyl-3-(methylsulfonamido)pyrrolidine-1-carboxylate]
IC50: 2.15 µM | Emax: 92%

COC(=O)N1[C@H](C)C[C@H](NS(C)(=O)=O)[C@@H]1COC1CCC(c2ccccc2)CC1C (stereo partly drawn) [Example 34, methyl (2R,3S,5R)-5-methyl-2-(((2-methyl-4-phenylcyclohexyl)oxy)methyl)-3-(methylsulfonamido)pyrrolidine-1-carboxylate]
IC50: 0.0375 µM | Emax: 99%

COC(=O)N1[C@H](C)C[C@H](NS(=O)(=O)N(C)C)[C@@H]1CO[C@@H]1CC=C(c2cccc(F)c2)CC1 [Example 35, methyl (2R,3S,5R)-3-((N,N-dimethylsulfamoyl)amino)-2-((((S)-3′-fluoro-2,3,4,5-tetrahydro-[1,1′-biphenyl]-4-yl)oxy)methyl)-5-methylpyrrolidine-1-carboxylate]
IC50: 0.0125 µM | Emax: 102%

COC(=O)N1[C@H](C)C[C@H](NS(=O)(=O)N(C)C)[C@@H]1CO[C@H]1CCC(c2cccc(F)c2)C(O)C1 (stereo partly drawn) [Example 36, methyl (2R,3S,5R)-3-((N,N-dimethylsulfamoyl)amino)-2-((((1S)-4-(3-fluorophenyl)-3-hydroxycyclohexyl)oxy)methyl)-5-methylpyrrolidine-1-carboxylate]
IC50: 0.00076 µM | Emax: 99%

CNS(=O)(=O)N[C@H]1C[C@@H](C)N(C(=O)OC(C)C)[C@H]1COC1CCN(c2ncccn2)CC1 [Example 38, isopropyl (2R,3S,5R)-5-methyl-3-((N-methylsulfamoyl)amino)-2-(((1-(pyrimidin-2-yl)piperidin-4-yl)oxy)methyl)pyrrolidine-1-carboxylate]
IC50: 0.00707 µM | Emax: 100%

CC(C)OC(=O)N1[C@H](C)C[C@H](NS(=O)(=O)N(C)C)[C@@H]1COC1CCN(c2ncc(F)cn2)CC1 [Example 39, isopropyl (2R,3S,5R)-3-((N,N-dimethylsulfamoyl)amino)-2-(((1-(5-fluoropyrimidin-2-yl)piperidin-4-yl)oxy)methyl)-5-methylpyrrolidine-1-carboxylate]
Emax: 101%

CCC1CC(NS(C)(=O)=O)C(CO[C@H]2CC[C@@H](c3ccccc3)CC2)N1C(=O)OC (stereo partly drawn) [Example 40, methyl (CIS)-5-ethyl-3-(methylsulfonamido)-2-((((CIS)-4-phenylcyclohexyl)oxy)-methyl)pyrrolidine-1-carboxylate]
Emax (%): 100%

COC(=O)N1C(C2CC2)C[C@H](NS(C)(=O)=O)C1COC1CCC(c2ccccc2)CC1 (stereo partly drawn) [Example 44, methyl (CIS)-5-cyclopropyl-3-(methylsulfonamido)-2-((((CIS)-4-phenylcyclohexyl)oxy)methyl)pyrrolidine-1-carboxylate]
Emax: 101%

CC[C@H]1C[C@@H](NS(C)(=O)=O)[C@@H](CO[C@H]2CC[C@@H](c3ccccc3)CC2)N1C(=O)OC [Example 45, methyl (2S,3R,5S)-5-ethyl-3-(methylsulfonamido)-2-((((CIS)-4-phenylcyclohexyl)oxy)methyl)-pyrrolidine-1-carboxylate]
Emax: 62%

CC[C@@H]1C[C@H](NS(C)(=O)=O)[C@H](CO[C@H]2CC[C@@H](c3ccccc3)CC2)N1C(=O)OC [Example 46, methyl (2R,3S,5R)-5-ethyl-3-(methylsulfonamido)-2-((((CIS)-4-phenylcyclohexyl)oxy)methyl)pyrrolidine-1-carboxylate]
Emax: 101%

COC(=O)N1C(CCO)CC(NS(C)(=O)=O)C1CO[C@H]1CC[C@@H](c2ccccc2)CC1 (stereo partly drawn) [Example 49, methyl (CIS)-5-(2-hydroxyethyl)-3-(methylsulfonamido)-2-((((CIS)-4-phenylcyclohexyl)oxy)methyl)pyrrolidine-1-carboxylate]
Emax (%): 102%

COC(=O)N1C(CO)CC(NS(C)(=O)=O)C1CO[C@H]1CC[C@@H](c2ccccc2)CC1 (stereo partly drawn) [Example 50, methyl (CIS)-5-(hydroxymethyl)-3-(methylsulfonamido)-2-((((CIS)-4-phenylcyclohexyl)oxy)-methyl)pyrrolidine-1-carboxylate]
Emax (%): 101%

COC[C@@H]1C[C@H](NS(=O)(=O)N(C)C)[C@H](CO[C@H]2CC[C@@H](c3cccc(F)c3)CC2)N1C(=O)OC [Example 51, methyl (2R,3S,5S)-3-((N,N-dimethylsulfamoyl)amino)-2-((((CIS)-4-(3-fluorophenyl)cyclohexyl)-oxy)methyl)-5-(methoxymethyl)pyrrolidine-1-carboxylate]
Emax: 101%

COC(=O)N1[C@H](CC#N)C[C@H](NS(=O)(=O)N(C)C)[C@@H]1CO[C@H]1CC[C@@H](c2cccc(F)c2)CC1 [Example 52, methyl (2R,3S,5S)-5-(cyanomethyl)-3-((N,N-dimethylsulfamoyl)amino)-2-((((CIS)-4-(3-fluorophenyl)cyclohexyl)oxy)methyl)pyrrolidine-1-carboxylate]
IC50: 0.0078 µM | Emax: 102%

COC(=O)N1[C@H](C)C[C@H](NS(=O)(=O)N(C)CC#N)[C@@H]1CO[C@H]1CC[C@@H](c2cccc(F)c2)CC1 [Example 53, Methyl (2R,3S,5R)-3-((N-(cyanomethyl)-N-methylsulfamoyl)amino)-2-((((1s,4S)-4-(3-fluorophenyl)cyclohexyl)oxy)methyl)-5-methylpyrrolidine-1-carboxylate]
Emax (%): 102%

COC(=O)N1[C@H](C)C[C@H](NS(=O)(=O)N(C)CCC#N)[C@@H]1CO[C@H]1CC[C@@H](c2cccc(F)c2)CC1 [Example 54, methyl (2R,3S,5R)-3-((N-(2-cyanoethyl)-N-methylsulfamoyl)amino)-2-((((1s,4S)-4-(3-fluorophenyl)cyclohex-yl)oxy)methyl)-5-methylpyrrolidine-1-carboxylate]
Emax (%): 98%

COCCN(C)S(=O)(=O)N[C@H]1C[C@@H](C)N(C(=O)OC)[C@H]1CO[C@H]1CC[C@@H](c2cccc(F)c2)CC1 [Example 55, methyl (2R,3S,5R)-2-((((1s,4S)-4-(3-fluorophenyl)cyclohex-yl)oxy)methyl)-3-((N-(2-methoxyethyl)-N-methylsulfamoyl)amino)-5-methylpyrrolidine-1-carboxylate]
Emax (%): 100%

COC(=O)N1[C@H](C)C[C@H](NS(=O)(=O)N(C)CCO)[C@@H]1CO[C@H]1CC[C@@H](c2cccc(F)c2)CC1 [Example 56, methyl (2R,3S,5R)-2-((((1s,4S)-4-(3-fluorophenyl)cyclohex-yl)oxy)methyl)-3-((N-(2-hydroxyethyl)-N-methylsulfamoyl)amino)-5-methylpyrrolidine-1-carboxylate]
Emax (%): 101%

COC(=O)N1[C@H](C)C[C@H](NS(=O)(=O)N(C)CCS(C)(=O)=O)[C@@H]1COC1CCC(c2cccc(F)c2)CC1 (stereo partly drawn) [Example 57, methyl (2R,3S,5R)-2-((((1s,4S)-4-(3-fluorophenyl)cyclohex-yl)oxy)methyl)-5-methyl-3-((N-methyl-N-(2-(methyslulfonyl)-ethyl)sulfamoyl)amino) pyrrolidine-1-carboxylate]
Emax (%): 100%

COC(=O)N1[C@H](C)C[C@H](NS(=O)(=O)N(C)CC2CS(=O)(=O)C2)[C@@H]1CO[C@H]1CC[C@@H](c2cccc(F)c2)CC1 [Example 58, methyl (2R,3S,5R)-3-((N-((1,1-dioxidothietan-3-yl)methyl)-N-methylsulfamoyl)amino)-2-((((1s,4S)-4-(3-fluorophenyl)cyclohex-yl)oxy)methyl)-5-methylpyrrolidine-1-carboxylate]
Emax (%): 101%

COC(=O)N1[C@H](C)C[C@H](NS(=O)(=O)N(C)CCOC(F)(F)F)[C@@H]1CO[C@H]1CC[C@@H](c2cccc(F)c2)CC1 [Example 59, methyl (2R,3S,5R)-2-((((1s,4S)-4-(3-fluorophenyl)cyclohex-yl)oxy)methyl)-5-methyl-3-((N-methyl-N-(2-(trifluoromethoxy)ethyl)sulfamoyl)amino)pyrro-lidine-1-carboxylate]
Emax (%): 99%
